Results reported in patent US20050059641A1, “Compositions and methods for treating and preventing cancer using analogs of vitamin D” (Aphios Corporation, priority 2003, published 2005).

Assays:
[1] = test system: caspase-3; test: Caspase Colorimetric assay, caspase-3; type: cell-based; details: PC3 cells, 10 nM, 14 hours
Description: (§1) Caspase-activity: There are several markers for apoptosis, and caspase activity is one of them; and their levels normally go up under apoptotic conditions. Investigators determined the levels of caspases 3, 8 and 9 by Caspase Colorimetric assay kits from R&D Systems (Minneapolis, Minn.) and used according to the manufacturer's instructions. Briefly, PC3 cells (1×10^6) were treated with 10 nM of 1,25(OH)2D3, 25-OH-D3 or 25-OH-D3-3-BE for 14 hours in culture medium (DMEM, 10% FBS and antibiotics). The cells were collected by centrifugation at 1000 RPM for 5 min. The cell pellet was lysed with lysis buffer, and the lysate was incubated on ice for 10 min. and centrifuged for 10,000 RPM for 5 min. Protein was estimated using Bradford protein estimation kit (BioRad). The enzymatic reactions were carried out in 96 well plate. For each reaction 100 μg lysate protein in 50 μl was incubated with 50 μl of 2×reaction buffer and 5 μl of caspase-3 or caspase-8 or caspase-9 calorimetric substrate for 2 h at 37° C. The absorbance was determined at 405 nm.

[2] = in vivo toxicity study in CD-1 mice; set-up: Serum Calcium on day 12: unit not given here; details: for Body Weight on Day 12 / Serum Calcium on day 12 / Body Weight On Day 0: CD-1 mice; for Body Weight On Day 0: beginning of the experiment
Text: Investigators completed an in vivo study to determine the toxicity of 25-OH-D3-3-BE at various doses in CD-1 mice. The animals (average weight ˜30 gms) were maintained with normal chow and water ad libitum. […] At the end of the experiment the animals were lightly anesthetized and blood collected after decapitation for serum calcium-analysis. […] Frequency of administration, body weights at the beginning and at the end of the experiment and serum calcium values are given in the accompanying Table 1.

[3] = test system: caspase-9; test: Caspase Colorimetric assay, caspase-9; type: cell-based; details: PC3 cells, 10 nM, 14 hours
Description: as §1

[4] = test system: PC-3 cells; test: DNA-fragmentation analysis; type: cell-based, human; details: 250 nM, 10 hours
Description: (a) DNA-fragmentation analysis: PC-3 cells (2×10^6) were treated with 250 nM of 1,25(OH)2D3, 25-OH-D3 or 25-OH-D3-3-BE for 10 hours. The cells were harvested and lysed in 0.5 ml lysis buffer (20 mM Tris-HCl, 10 mM EDTA, 0.5% Triton X-100, pH 8.0), and DNA was extracted using phenol-chloroform procedure. The DNA was resuspended in 0.1 ml of 20 mM Tris-HCl, pH 8 and treated with Rnase, followed by electrophoresis on 1.2% agarose gel in TAE. The DNA was visualized under UV light after ethidinium bromide staining.

[5] = test system: PZ-HPV-7 (papillovirus immortalized normal prostate cells); test: 3H-thymidine incorporation assay, PZ-HPV-7; type: cell-based; details: PZ-HPV-7 cells, 10^−6M
Description: (§2) It is well known that secretory epithelial cells are the main sites for the development of cancers of the breast, prostate and various other organs.
The inventors further studied the effect of 1,25(OH)2D3-3-BE on LNCAP cells (most closely resembling human hormone-sensitive prostate cancer) and PZ-HPV-7 cells (immortalized normal prostate cells). The cells were treated with ethanol or 10^−6M of either 1,25(OH)2D3 or 1,25(OH)2D3-3-BE for 16 hours and the effect on proliferation was determined by ^3H-thymidine incorporation assays as described earlier. The viable cell count was determined by Methylene blue assay. The Methylene blue assay is a simple colorimetric method that is widely used to determine the viable cell count.
(§3) In a study, investigators compared the growth-inhibitory effects of 25-OH-D3-3-BE and 1,25(OH)2D3 in several VDR-positive epithelial cells, e.g. keratinocytes (primary skin cells), MCF-7 cells (breast cancer cells), hormone-sensitive LNCaP and hormone-refractory PC3 cells (prostate cancer cells), and PZ-HPV-7 (papillovirus immortalized normal prostate cells) by using ^3H-thymidine incorporation assays (FIGS. 14-19).

[6] = test system: MCF-7 cells (breast cancer cells); test: 3H-thymidine incorporation assay, MCF-7; type: cell-based; details: 10^−6M
Text: as §2
It is well-established that the biological properties of 1,25(OH)2D3 and its analogs are mediated by their interaction with VDR.
as §3

[7] = test system: prostate tumor induced with PC-3 cells; test: in vivo effect in mice bearing prostate tumor induced with PC-3 cells; set-up: species or system male SCID mice; details: SCID mice with PC-3 tumor
Description: Sesame oil solutions (200 μl) of either 25-OH-D3 (10 μg) or 25-OH-D3-3-BE (13.2 μg, molar equivalent of 25-OH-D3) or vehicle were administered i.p. in alternate days for two weeks. […] At the end, mice were anesthetized, tumors were removed, and blood was collected. Tumors were embedded in paraffin and sections were made.

C=C1CCC(OC(=O)CBr)CC1=CC=C1CCCC2(C)C1CCC2C(C)CCCC(C)(C)O (centres unmarked) [25-OH-D3-3-BE, 25-hydroxyvitamin D3-3-bromoacetate]
Caspase-3 induction [1]: induced | Body Weight on Day 12 ([2]; 3.3 μg/kg intraperitoneally): 30.36 ± 1 grams | Serum Calcium on day 12 ([2]; 3.3 μg/kg intraperitoneally): 9.1 ± 0.2 | Body Weight On Day 0 ([2]; 3.3 μg/kg intraperitoneally): 29 ± 0.6 grams | Body Weight on Day 12 ([2]; 33 μg/kg intraperitoneally): 32.9 ± 1.4 grams | Serum Calcium on day 12 ([2]; 33 μg/kg intraperitoneally): 9.4 ± 0.2 | Body Weight On Day 0 ([2]; 33 μg/kg intraperitoneally): 31 ± 0.83 grams | Body Weight on Day 12 ([2]; 166.7 μg/kg intraperitoneally): 30.7 ± 1 grams | Serum Calcium on day 12 ([2]; 166.7 μg/kg intraperitoneally): 9.7 ± 0.1 | Body Weight On Day 0 ([2]; 166.7 μg/kg intraperitoneally): 30.55 ± 0.7 grams | toxicity in vivo ([2]; mouse, dose as high as 166.7 μg/Kg): non-toxic | Caspase-9 induction [3]: induced | DNA fragmentation (apoptosis) [4]: DNA fragmentation was observed | growth-inhibitory effect (3H-thymidine incorporation) [5]: antiproliferative | lethal to the cells [5]: not | growth-inhibitory effect (3H-thymidine incorporation) [6]: antiproliferative | lethal to the cells [6]: not | loss of body weight ([7]; 13.2 μg i.p. in alternate days for two weeks): no significant loss of body weight | Hematoxylin-Eosin staining of the tumor sections ([7]; 13.2 μg i.p. in alternate days for two weeks, versus vehicle (sesame oil)): considerably less cellular | condition of the mice at the end of treatment ([7]; 25-OH-D3 10 μg or 25-OH-D3-3-BE 13.2 μg (molar equivalent) i.p. in alternate days for two weeks): viable
